Test results taken from ChEMBL document CHEMBL4004838, “Design and synthesis of novel phenyl -1, 4-beta-carboline-hybrid molecules as potential anticancer agents” (Eur J Med Chem, 2017).

tested on: TK-10; assay: Growth inhibition of human TK10 cells assessed as cell growth at 10^-5 M incubated for 48 hrs by sulforhodamine B assay relative to control; assay type: functional; conditions: TK-10, 48 h, read-out: Activity

SMILES	growth at 10 µM [%]
O=Cc1ccc(C2NCCc3c2[nH]c2ccccc32)cc1 (stereo not drawn)	115

tested on: K562; assay: Growth inhibition of human K562 cells assessed as cell growth at 10^-5 M incubated for 48 hrs by sulforhodamine B assay relative to control; assay type: functional; conditions: K562, 48 h, read-out: Activity

SMILES	growth at 10 µM [%]
O=Cc1ccc(C2NCCc3c2[nH]c2ccccc32)cc1 (stereo not drawn)	102

tested on: U-251; assay: Growth inhibition of human U251 cells assessed as cell growth at 10^-5 M incubated for 48 hrs by sulforhodamine B assay relative to control; assay type: functional; conditions: U-251, 48 h, read-out: Activity

SMILES	growth at 10 µM [%]
O=Cc1ccc(C2NCCc3c2[nH]c2ccccc32)cc1 (stereo not drawn)	95.3

tested on: COLO 205; assay: Growth inhibition of human COLO205 cells assessed as cell growth at 10^-5 M incubated for 48 hrs by sulforhodamine B assay relative to control; assay type: functional; conditions: COLO 205, 48 h, read-out: Activity

SMILES	growth at 10 µM [%]
O=Cc1ccc(C2NCCc3c2[nH]c2ccccc32)cc1 (stereo not drawn)	105

tested on: BT-549; assay: Growth inhibition of human BT549 cells assessed as cell growth at 10^-5 M incubated for 48 hrs by sulforhodamine B assay relative to control; assay type: functional; conditions: BT-549, 48 h, read-out: Activity

SMILES	growth at 10 µM [%]
O=Cc1ccc(C2NCCc3c2[nH]c2ccccc32)cc1 (stereo not drawn)	90.1

tested on: OVCAR-4; assay: Growth inhibition of human OVCAR4 cells assessed as cell growth at 10^-5 M incubated for 48 hrs by sulforhodamine B assay relative to control; assay type: functional; conditions: OVCAR-4, 48 h, read-out: Activity

SMILES	growth at 10 µM [%]
O=Cc1ccc(C2NCCc3c2[nH]c2ccccc32)cc1 (stereo not drawn)	97.4

tested on: MDA-MB-468; assay: Growth inhibition of human MDA-MB-468 cells assessed as cell growth at 10^-5 M incubated for 48 hrs by sulforhodamine B assay relative to control; assay type: functional; conditions: MDA-MB-468, 48 h, read-out: Activity

SMILES	growth at 10 µM [%]
O=Cc1ccc(C2NCCc3c2[nH]c2ccccc32)cc1 (stereo not drawn)	88.7

tested on: UO-31; assay: Growth inhibition of human UO31 cells assessed as cell growth at 10^-5 M incubated for 48 hrs by sulforhodamine B assay relative to control; assay type: functional; conditions: UO-31, 48 h, read-out: Activity

SMILES	growth at 10 µM [%]
O=Cc1ccc(C2NCCc3c2[nH]c2ccccc32)cc1 (stereo not drawn)	61.9

tested on: SR; assay: Growth inhibition of human SR cells assessed as cell growth at 10^-5 M incubated for 48 hrs by sulforhodamine B assay relative to control; assay type: functional; conditions: read-out: Activity

SMILES	growth at 10 µM [%]
O=Cc1ccc(C2NCCc3c2[nH]c2ccccc32)cc1 (stereo not drawn)	114

tested on: Malme-3M; assay: Growth inhibition of human MALME-3M cells assessed as cell growth at 10^-5 M incubated for 48 hrs by sulforhodamine B assay relative to control; assay type: functional; conditions: read-out: Activity

SMILES	growth at 10 µM [%]
O=Cc1ccc(C2NCCc3c2[nH]c2ccccc32)cc1 (stereo not drawn)	100

tested on: UACC-62; assay: Growth inhibition of human UACC62 cells assessed as cell growth at 10^-5 M incubated for 48 hrs by sulforhodamine B assay relative to control; assay type: functional; conditions: UACC-62, 48 h, read-out: Activity

SMILES	growth at 10 µM [%]
O=Cc1ccc(C2NCCc3c2[nH]c2ccccc32)cc1 (stereo not drawn)	81.2

tested on: HCC 2998; assay: Growth inhibition of human HCC2998 cells assessed as cell growth at 10^-5 M incubated for 48 hrs by sulforhodamine B assay relative to control; assay type: functional; conditions: HCC 2998, 48 h, read-out: Activity

SMILES	growth at 10 µM [%]
O=Cc1ccc(C2NCCc3c2[nH]c2ccccc32)cc1 (stereo not drawn)	104

tested on: SNB-75; assay: Growth inhibition of human SNB75 cells assessed as cell growth at 10^-5 M incubated for 48 hrs by sulforhodamine B assay relative to control; assay type: functional; conditions: SNB-75, 48 h, read-out: Activity

SMILES	growth at 10 µM [%]
O=Cc1ccc(C2NCCc3c2[nH]c2ccccc32)cc1 (stereo not drawn)	77.8

tested on: SK-MEL-2; assay: Growth inhibition of human SK-MEL-2 cells assessed as cell growth at 10^-5 M incubated for 48 hrs by sulforhodamine B assay relative to control; assay type: functional; conditions: SK-MEL-2, 48 h, read-out: Activity

SMILES	growth at 10 µM [%]
O=Cc1ccc(C2NCCc3c2[nH]c2ccccc32)cc1 (stereo not drawn)	94.8

tested on: HCT-15; assay: Growth inhibition of human HCT15 cells assessed as cell growth at 10^-5 M incubated for 48 hrs by sulforhodamine B assay relative to control; assay type: functional; conditions: HCT-15, 48 h, read-out: Activity

SMILES	growth at 10 µM [%]
O=Cc1ccc(C2NCCc3c2[nH]c2ccccc32)cc1 (stereo not drawn)	101

tested on: HOP-92; assay: Growth inhibition of human HOP92 cells assessed as cell growth at 10^-5 M incubated for 48 hrs by sulforhodamine B assay relative to control; assay type: functional; conditions: HOP-92, 48 h, read-out: Activity

SMILES	growth at 10 µM [%]
O=Cc1ccc(C2NCCc3c2[nH]c2ccccc32)cc1 (stereo not drawn)	87.2

tested on: 786-0; assay: Growth inhibition of human 786-0 cells assessed as cell growth at 10^-5 M incubated for 48 hrs by sulforhodamine B assay relative to control; assay type: functional; conditions: 786-0, 48 h, read-out: Activity

SMILES	growth at 10 µM [%]
O=Cc1ccc(C2NCCc3c2[nH]c2ccccc32)cc1 (stereo not drawn)	104

tested on: T47D; assay: Growth inhibition of human T47D cells assessed as cell growth at 10^-5 M incubated for 48 hrs by sulforhodamine B assay relative to control; assay type: functional; conditions: read-out: Activity

SMILES	growth at 10 µM [%]
O=Cc1ccc(C2NCCc3c2[nH]c2ccccc32)cc1 (stereo not drawn)	92.3

tested on: ACHN; assay: Growth inhibition of human ACHN cells assessed as cell growth at 10^-5 M incubated for 48 hrs by sulforhodamine B assay relative to control; assay type: functional; conditions: read-out: Activity

SMILES	growth at 10 µM [%]
O=Cc1ccc(C2NCCc3c2[nH]c2ccccc32)cc1 (stereo not drawn)	95

tested on: DU-145; assay: Growth inhibition of human DU145 cells assessed as cell growth at 10^-5 M incubated for 48 hrs by sulforhodamine B assay relative to control; assay type: functional; conditions: DU-145, 48 h, read-out: Activity

SMILES	growth at 10 µM [%]
O=Cc1ccc(C2NCCc3c2[nH]c2ccccc32)cc1 (stereo not drawn)	110

tested on: NCI/ADR-RES; assay: Growth inhibition of human NCI-ADR-RES cells assessed as cell growth at 10^-5 M incubated for 48 hrs by sulforhodamine B assay relative to control; assay type: functional; conditions: read-out: Activity

SMILES	growth at 10 µM [%]
O=Cc1ccc(C2NCCc3c2[nH]c2ccccc32)cc1 (stereo not drawn)	107

tested on: MOLT-4; assay: Growth inhibition of human MOLT4 cells assessed as cell growth at 10^-5 M incubated for 48 hrs by sulforhodamine B assay relative to control; assay type: functional; conditions: MOLT-4, 48 h, read-out: Activity

SMILES	growth at 10 µM [%]
O=Cc1ccc(C2NCCc3c2[nH]c2ccccc32)cc1 (stereo not drawn)	95.5

tested on: CCRF-CEM; assay: Growth inhibition of human CCRF-CEM cells assessed as cell growth at 10^-5 M incubated for 48 hrs by sulforhodamine B assay relative to control; assay type: functional; conditions: read-out: Activity

SMILES	growth at 10 µM [%]
O=Cc1ccc(C2NCCc3c2[nH]c2ccccc32)cc1 (stereo not drawn)	99.3

tested on: MDA-MB-435; assay: Growth inhibition of human MDA-MB-435 cells assessed as cell growth at 10^-5 M incubated for 48 hrs by sulforhodamine B assay relative to control; assay type: functional; conditions: MDA-MB-435, 48 h, read-out: Activity

SMILES	growth at 10 µM [%]
O=Cc1ccc(C2NCCc3c2[nH]c2ccccc32)cc1 (stereo not drawn)	107

tested on: HT-29; assay: Growth inhibition of human HT-29 cells assessed as cell growth at 10^-5 M incubated for 48 hrs by sulforhodamine B assay relative to control; assay type: functional; conditions: HT-29, 48 h, read-out: Activity

SMILES	growth at 10 µM [%]
O=Cc1ccc(C2NCCc3c2[nH]c2ccccc32)cc1 (stereo not drawn)	98.9

tested on: OVCAR-5; assay: Growth inhibition of human OVCAR5 cells assessed as cell growth at 10^-5 M incubated for 48 hrs by sulforhodamine B assay relative to control; assay type: functional; conditions: OVCAR-5, 48 h, read-out: Activity

SMILES	growth at 10 µM [%]
O=Cc1ccc(C2NCCc3c2[nH]c2ccccc32)cc1 (stereo not drawn)	100

tested on: NCI-H322M; assay: Growth inhibition of human NCI-H322M cells assessed as cell growth at 10^-5 M incubated for 48 hrs by sulforhodamine B assay relative to control; assay type: functional; conditions: read-out: Activity

SMILES	growth at 10 µM [%]
O=Cc1ccc(C2NCCc3c2[nH]c2ccccc32)cc1 (stereo not drawn)	97.6

tested on: LOX IMVI; assay: Growth inhibition of human LOXIMVI cells assessed as cell growth at 10^-5 M incubated for 48 hrs by sulforhodamine B assay relative to control; assay type: functional; conditions: read-out: Activity

SMILES	growth at 10 µM [%]
O=Cc1ccc(C2NCCc3c2[nH]c2ccccc32)cc1 (stereo not drawn)	88.6

tested on: OVCAR-3; assay: Growth inhibition of human OVCAR3 cells assessed as cell growth at 10^-5 M incubated for 48 hrs by sulforhodamine B assay relative to control; assay type: functional; conditions: OVCAR-3, 48 h, read-out: Activity

SMILES	growth at 10 µM [%]
O=Cc1ccc(C2NCCc3c2[nH]c2ccccc32)cc1 (stereo not drawn)	99.7

tested on: HL-60(TB); assay: Growth inhibition of human HL-60(TB) cells assessed as cell growth at 10^-5 M incubated for 48 hrs by sulforhodamine B assay relative to control; assay type: functional; conditions: HL-60, 48 h, read-out: Activity

SMILES	growth at 10 µM [%]
O=Cc1ccc(C2NCCc3c2[nH]c2ccccc32)cc1 (stereo not drawn)	89.4

tested on: NCI-H226; assay: Growth inhibition of human NCI-H226 cells assessed as cell growth at 10^-5 M incubated for 48 hrs by sulforhodamine B assay relative to control; assay type: functional; conditions: NCI-H226, 48 h, read-out: Activity

SMILES	growth at 10 µM [%]
O=Cc1ccc(C2NCCc3c2[nH]c2ccccc32)cc1 (stereo not drawn)	78.2

tested on: NCI-H23; assay: Growth inhibition of human NCI-H23 cells assessed as cell growth at 10^-5 M incubated for 48 hrs by sulforhodamine B assay relative to control; assay type: functional; conditions: NCI-H23, 48 h, read-out: Activity

SMILES	growth at 10 µM [%]
O=Cc1ccc(C2NCCc3c2[nH]c2ccccc32)cc1 (stereo not drawn)	87.1

tested on: Hs-578T; assay: Growth inhibition of human Hs 578T cells assessed as cell growth at 10^-5 M incubated for 48 hrs by sulforhodamine B assay relative to control; assay type: functional; conditions: read-out: Activity

SMILES	growth at 10 µM [%]
O=Cc1ccc(C2NCCc3c2[nH]c2ccccc32)cc1 (stereo not drawn)	90.5
